# Data from US9181258B2, “Substituted 3,4-dihydropyrrolo[1,2-a]pyrazin-1(2H)-ones as protein kinase inhibitors” (NERVIANO MEDICAL SCIENCES S.R.L., priority 2011, dated 2015).
# Counter-ions that a name gives are not always drawn. Like-named read-outs stand apart in the source and are kept apart here.
# Legend:
# BaF3-PIM1 cells = assay: In vitro cell proliferation assay (CellTiter-Glo), BaF3-PIM1; format: cell-based; conditions: 72 hours
# human PIM1 = human PIM1 (Homo sapiens (Human), UniProt P11309); assay: Biochemical assay for inhibitors of PIM1 kinase activity (trans-phosphorylation, Dowex technique); conditions: ATP 200 μM, Aktide 25 μM, enzyme 1 nM; read-out: PIM-1 IC50
# How it was run: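 Full-length human PIM1 (1 nM) phosphorylates Aktide (25 μM) with 200 μM ATP plus 6 nM ^33P-γ-ATP in HEPES 50 mM pH 7.5, 10 mM MgCl2, 1 mM DTT, 3 μM NaVO3, 0.2 mg/mL BSA. Unreacted ATP captured on Dowex resin, supernatant β-counted; IC50 from ten-point 1:3 dilution sigmoidal fit.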
# human PIM2 = human PIM2 (Homo sapiens (Human), UniProt Q9P1W9); assay: PIM2 kinase inhibition assay: Dowex technique; format: biochemical; conditions: ATP 4 μM, Aktide 5 μM, enzyme 1.5 nM; read-out: PIM-2 IC50
# How it was run: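 Radiometric Dowex read-out, run as for PIM1, with 50 mM HEPES pH 7.5, 1 mM MgCl2, 1 mM DTT, 3 μM Na3VO4 and 0.2 mg/mL BSA. Final conditions: 5 μM Aktide substrate, 4 μM ATP spiked with 1 nM 33P-γ-ATP, 1.5 nM full-length human enzyme.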
# MV-4-11 cells = assay: In vitro cell proliferation assay (CellTiter-Glo), MV-4-11; format: cell-based
# Protocol: In Vitro Cell Proliferation Assay
# MV-4-11 (biphenotypic B myelomonocytic leukemia) cell line was obtained from ATCC.
# Media for MV-4-11 cell line contained RPMI 1640 or EMEM plus 2 mM Glutamine and 10% Fetal bovine serum.
# BaF3-PIM1 and MV-4-11 cells were seeded at 125 cells/well and 1250 cells/well respectively in a 384-well white plates in complete medium and treated with compounds dissolved in 0.1% DMSO, 24 h after seeding.
# The cells were incubated at 37° C. and 5% CO2 and after 72 hours the plates were processed using CellTiter-Glo assay (Promega) following the manufacturer's instruction.
# CellTiter-Glo was a homogenous method based on the quantification of the ATP present, an indicator of metabolitically active cells. ATP was quantified using a system based on luciferase and D-luciferin resulting into light generation. The luminescent signal was proportional to the number of cells present in culture.
# Briefly 25 μl/well reagent solution were added to each wells and after 5 minutes shacking microplates were red by Envision (PerkinElmer) luminometer. The luminescent signal was proportional to the number of cells present in culture.
# Inhibitory activity was evaluated comparing treated versus control data using Assay Explorer (MDL) program. IC50 was calculated using sigmoidal interpolation curve.
# Sequence of human PIM1 (P11309 whole entry): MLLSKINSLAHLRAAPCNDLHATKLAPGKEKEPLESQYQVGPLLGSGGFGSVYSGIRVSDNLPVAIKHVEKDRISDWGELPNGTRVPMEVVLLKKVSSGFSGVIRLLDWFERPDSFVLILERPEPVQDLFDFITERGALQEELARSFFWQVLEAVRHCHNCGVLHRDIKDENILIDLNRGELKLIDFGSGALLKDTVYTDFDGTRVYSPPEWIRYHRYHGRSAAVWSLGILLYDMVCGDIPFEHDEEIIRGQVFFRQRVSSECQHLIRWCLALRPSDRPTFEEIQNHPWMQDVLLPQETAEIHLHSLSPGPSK
# Sequence of human PIM2 (Q9P1W9 whole entry): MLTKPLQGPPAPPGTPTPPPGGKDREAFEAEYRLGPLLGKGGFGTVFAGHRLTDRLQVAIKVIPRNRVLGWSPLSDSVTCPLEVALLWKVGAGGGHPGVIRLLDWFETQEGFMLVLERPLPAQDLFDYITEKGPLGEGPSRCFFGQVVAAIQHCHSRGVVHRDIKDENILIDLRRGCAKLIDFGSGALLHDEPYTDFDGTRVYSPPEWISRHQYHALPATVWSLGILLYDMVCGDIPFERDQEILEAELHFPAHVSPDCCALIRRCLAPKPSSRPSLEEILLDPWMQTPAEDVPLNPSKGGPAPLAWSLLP
Compound,IC50 (BaF3-PIM1 cells),IC50 (human PIM1),IC50 (human PIM2),"IC50 (MV-4-11 cells; Homo sapiens, MV4-11, 72 hours)","IC50 (MV-4-11 cells; 72 hours, read-out: MV4-11 IC50)"
"NCC[C@H]1CNC(=O)c2cc(-c3cccc(OC(F)(F)F)c3)c(-c3ccc4ccccc4c3)n21 [Compound 118, (4S)-4-(2-aminoethyl)-6-(naphthalen-2-yl)-7-[3-(trifluoromethoxy)phenyl]-3,4-dihydropyrrolo[1,2-a]pyrazin-1(2H)-one hydrochloride]",0.31 µM,0.027 µM,0.152 µM,0.76 µM,–
"NCC[C@H]1CNC(=O)c2cc(-c3cccc(OC(F)(F)F)c3)c(-c3ccc(S(N)(=O)=O)cc3)n21 [Compound 120, 4-{(4S)-4-(2-aminoethyl)-1-oxo-7-[3-(trifluoromethoxy)phenyl]-1,2,3,4-tetrahydropyrrolo[1,2-a]pyrazin-6-yl}benzenesulfonamide hydrochloride]",1.36 µM,0.001 µM,0.003 µM,5.35 µM,–
"NCC[C@H]1CNC(=O)c2cc(-c3cccc(OC(F)(F)F)c3)c(-c3cccc(F)c3)n21 [Compound 121, (4S)-4-(2-aminoethyl)-6-(3-fluorophenyl)-7-[3-(trifluoromethoxy)phenyl]-3,4-dihydropyrrolo[1,2-a]pyrazin-1(2H)-one hydrochloride]",0.086 µM,0.003 µM,0.012 µM,0.66 µM,–
"Cc1cc(-c2c(-c3cccc(OC(F)(F)F)c3)cc3n2[C@@H](CCN)CNC3=O)ccc1F [Compound 122, (4S)-4-(2-aminoethyl)-6-(4-fluoro-3-methylphenyl)-7-[3-(trifluoromethoxy)phenyl]-3,4-dihydropyrrolo[1,2-a]pyrazin-1(2H)-one hydrochloride]",0.165 µM,0.017 µM,0.086 µM,0.776 µM,–
"CSc1ccc(-c2c(-c3cccc(OC(F)(F)F)c3)cc3n2[C@@H](CCN)CNC3=O)cc1 [Compound 123, (4S)-4-(2-aminoethyl)-6-[4-(methylsulfanyl)phenyl]-7-[3-(trifluoromethoxy)phenyl]-3,4-dihydropyrrolo[1,2-a]pyrazin-1(2H)-one hydrochloride]",0.089 µM,0.016 µM,0.045 µM,0.73 µM,–
"CC(C)(C)c1ccc(-c2c(-c3cccc(OC(F)(F)F)c3)cc3n2[C@@H](CCN)CNC3=O)cc1 [Compound 124, (4S)-4-(2-aminoethyl)-6-(4-tert-butylphenyl)-7-[3-(trifluoromethoxy)phenyl]-3,4-dihydropyrrolo[1,2-a]pyrazin-1(2H)-one hydrochloride]",0.13 µM,0.024 µM,0.16 µM,0.468 µM,–
"NCC[C@H]1CNC(=O)c2cc(-c3cccc(OC(F)(F)F)c3)c(-c3cccc(C(F)(F)F)c3)n21 [Compound 125, (4S)-4-(2-aminoethyl)-7-[3-(trifluoromethoxy)phenyl]-6-[3-(trifluoromethyl)phenyl]-3,4-dihydropyrrolo[1,2-a]pyrazin-1(2H)-one hydrochloride]",0.304 µM,0.044 µM,0.097 µM,0.94 µM,–
"CS(=O)(=O)NCC[C@H]1CNC(=O)c2cc(-c3cccc(OC(F)(F)F)c3)c(-c3ccccc3)n21 [Compound 147, N-(2-{(4S)-1-oxo-6-phenyl-7-[3-(trifluoromethoxy)phenyl]-1,2,3,4-tetrahydropyrrolo[1,2-a]pyrazin-4-yl}ethyl)methanesulfonamide]",0.638 µM,0.026 µM,0.172 µM,3.62 µM,–

# Now from value to molecule:
IC50 (BaF3-PIM1 cells),IC50 (human PIM1),IC50 (human PIM2),"IC50 (MV-4-11 cells; Homo sapiens, MV4-11, 72 hours)","IC50 (MV-4-11 cells; 72 hours, read-out: MV4-11 IC50)",Compound
0.125 µM,0.013 µM,0.021 µM,0.776 µM,–,"NCC[C@H]1CNC(=O)c2cc(-c3cccc(OC(F)(F)F)c3)c(-c3cccc(Cl)c3)n21 [Compound 126, (4S)-4-(2-aminoethyl)-6-(3-chlorophenyl)-7-[3-(trifluoromethoxy)phenyl]-3,4-dihydropyrrolo[1,2-a]pyrazin-1(2H)-one hydrochloride]"
0.125 µM,0.012 µM,0.024 µM,0.433 µM,–,"CCOc1ccc(-c2c(-c3cccc(OC(F)(F)F)c3)cc3n2[C@@H](CCN)CNC3=O)cc1F [Compound 127, (4S)-4-(2-aminoethyl)-6-(4-ethoxy-3-fluorophenyl)-7-[3-(trifluoromethoxy)phenyl]-3,4-dihydropyrrolo[1,2-a]pyrazin-1(2H)-one hydrochloride]"
0.175 µM,0.008 µM,0.032 µM,–,0.47 µM,"COc1c(C)cc(-c2c(-c3cccc(OC(F)(F)F)c3)cc3n2[C@@H](CCN)CNC3=O)cc1C [Compound 128, 4S)-4-(2-aminoethyl)-6-(4-methoxy-3,5-dimethyl phenyl)-7-[3-(trifluoromethoxy)phenyl]-3,4-dihydropyrrolo[1,2-a]pyrazin-1(2H)-one hydrochloride]"
0.198 µM,0.003 µM,0.012 µM,0.71 µM,–,"COc1ccc(-c2c(-c3cccc(OC(F)(F)F)c3)cc3n2[C@@H](CCN)CNC3=O)cc1Cl [Compound 129, (4S)-4-(2-aminoethyl)-6-(3-chloro-4-methoxyphenyl)-7-[3-(trifluoromethoxy)phenyl]-3,4-dihydropyrrolo[1,2-a]pyrazin-1(2H)-one hydrochloride]"
4.33 µM,0.002 µM,0.066 µM,7.05 µM,–,"CN(C)Cc1ccc(-c2c(-c3cccc(OC(F)(F)F)c3)cc3n2[C@@H](CCCN)CNC3=O)cc1 [Compound 134, (4S)-4-(3-aminopropyl)-6-{4-[(dimethylamino)methyl]phenyl}-7-[3-(trifluoromethoxy)phenyl]-3,4-dihydropyrrolo[1,2-a]pyrazin-1(2H)-one dihydrochloride]"
0.491 µM,0.034 µM,0.174 µM,4.89 µM,–,"CC(=O)NCC[C@H]1CNC(=O)c2cc(-c3cccc(OC(F)(F)F)c3)c(-c3ccccc3)n21 [Compound 142, N-(2-{(4S)-1-oxo-6-phenyl-7-[3-(trifluoromethoxy)phenyl]-1,2,3,4-tetrahydropyrrolo[1,2-a]pyrazin-4-yl}ethyl)acetamide]"
